The first test deals with T1, human TREM2 (Homo sapiens, UniProt Q9NZC2).
T1 construct: expressed in transfected cells; host or cells: HEK293T (HEK293T-hTREM2 cells)
T1 sequence (Q9NZC2 19-230): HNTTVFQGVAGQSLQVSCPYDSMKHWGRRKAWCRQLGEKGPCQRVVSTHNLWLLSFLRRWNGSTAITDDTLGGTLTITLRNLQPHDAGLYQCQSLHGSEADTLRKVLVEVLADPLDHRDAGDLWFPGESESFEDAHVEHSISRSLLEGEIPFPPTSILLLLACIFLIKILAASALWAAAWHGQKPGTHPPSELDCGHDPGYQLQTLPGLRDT
T1 sequence (O43914 22-113 partner): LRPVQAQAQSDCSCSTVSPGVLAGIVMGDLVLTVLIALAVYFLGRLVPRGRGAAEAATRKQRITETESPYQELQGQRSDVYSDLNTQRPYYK
The test is described as follows: TREM2 agonist potency by cellular phosphorylation of Spleen Tyrosine Kinase (Syk), AlphaLisa, HEK293T-hTREM2 cells. The class given is cell-based.
Details: not given
The method in brief:
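HEK293T cells co-expressing human TREM2 and DAP12, plated 20–24 h before use. Compounds applied 45 min at room temperature in assay buffer, then cells lysed and phospho-Syk quantified by AlphaLisa. Percent activation from a standard curve; EC50 from a four-parameter variable-slope fit.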
On the technique in general: In Alpha technology, singlet oxygen from a donor bead excites a nearby acceptor bead.
The EC50 is the concentration giving half of the maximal effect. In turn, `[2H]C([2H])([2H])n1cc([C@H]2C[C@@H](c3nc(-c4ccc(C(F)(F)F)cc4F)c4nc(OC)c(C)nc4n3)CCO2)ccc1=O` [Example 132, 5-[(2R,4S)-4-[4-[2-fluoro-4-(trifluoromethyl)phenyl]-6-methoxy-7-methyl-pteridin-2-yl]tetrahydropyran-2-yl]-1-(trideuteriomethyl)pyridin-2-one] came in with a concentration giving a half-maximal response (EC50) of under 0.1 µM. Same read-out and setting: in the case of `Cc1nc2nc(N3C[C@@H](C)O[C@@H](c4ccc(=O)n(C)c4)C3)nc(C34CC(C(F)(F)F)(C3)C4)c2nc1C(F)F` [Example 180, 5-[(2S,6R)-4-[6-(difluoromethyl)-7-methyl-4-[3-(trifluoromethyl)-1-bicyclo[1.1.1]pentanyl]pteridin-2-yl]-6-methyl-morpholin-2-yl]-1-methyl-pyridin-2-one] it was under 0.1 µM.

The test is the same for the next values; noted with them: hTREM2 EC50 Data (HEK293 Cells); Syk phosphorylation, AlphaLisa; read-out: hTREM2 EC50.
For the compound `Cc1nc2nc(N3CCC(F)(F)C(c4ccc(=O)n(C)c4)C3)nc(-c3ccc(F)cc3F)c2nc1C` (stereo not shown) [Example 190, 5-[1-[4-(2,4-difluorophenyl)-6,7-dimethyl-pteridin-2-yl]-4,4-difluoro-3-piperidyl]-1-methyl-pyridin-2-one], the EC50 was under 0.1 µM. Still for that read-out and setting: in the case of `Cc1cc(-n2cc([C@H]3CC(c4nc(C56CC(C(F)(F)F)(C5)C6)c5nc(C)c(C)nc5n4)CCO3)ccc2=O)cs1` (stereo partly drawn) [Example 104, 5-((2R)-4-(6,7-dimethyl-4-(3-(trifluoromethyl)bicyclo-[1.1.1]pentan-1-yl)pteridin-2-yl)tetrahydro-2H-pyran-2-yl)-1-(5-methylthiophen-3-yl)pyridin-2 (1H)-one] it was under 0.1 µM; in that of `Cc1nc2nc([C@H]3CCO[C@@H](c4ccc(=O)n(N)c4)C3)nc(C34CC(C(F)(F)F)(C3)C4)c2cc1C(F)(F)F` [Example 332, 1-amino-5-((2R,4S)-4-(7-methyl-6-(trifluoromethyl)-4-(3-(trifluoromethyl)bicyclo[1.1.1]pentan-1-yl)pyrido[2,3-d]pyrimidin-2-yl)tetrahydro-2H-pyran-2-yl)pyridin-2 (1H)-one], under 0.1 µM. As for `COn1cc([C@H]2C[C@@H](c3nc(C45CC(C(F)(F)F)(C4)C5)c4nc(C)c(C)nc4n3)CCO2)ccc1=O` [Example 203, 5-[(2R,4S)-4-[6,7-dimethyl-4-[3-(trifluoromethyl)-1-bicyclo[1.1.1]pentanyl]pteridin-2-yl]tetrahydropyran-2-yl]-1-methoxy-pyridin-2-one], the EC50 was under 0.1 µM. As to `COc1nc2c(C3CCCCC3)nc([C@H]3CCO[C@@H](c4ccc(=O)n(C)c4)C3)nc2nc1C` [Example 136, 5-[(2R)-4-(4-cyclohexyl-6-methoxy-7-methyl-pteridin-2-yl)tetrahydropyran-2-yl]-1-methyl-pyridin-2-one], the concentration giving a half-maximal response (EC50) is under 0.1 µM. Still for that read-out and setting: in the case of `CNn1cc([C@H]2CN(c3nc(-c4ccc(F)cc4F)c4sc(N(C)C)nc4n3)C[C@@H](C)O2)ccc1=O` [Example 175, 5-[(2S,6R)-4-[7-(2,4-difluorophenyl)-2-(dimethylamino)thiazolo[4,5-d]pyrimidin-5-yl]-6-methyl-morpholin-2-yl]-1-(methylamino)pyridin-2-one] it was under 0.1 µM; in that of `Cc1nc2nc([C@H]3CCO[C@@H](c4ccc(=O)n(CC5(C#N)CC5)c4)C3)nc(C34CC(C(F)(F)F)(C3)C4)c2nc1C` [Example 98, 1-[[5-[(2R,4S)-4-[6,7-dimethyl-4-[3-(trifluoromethyl)-1-bicyclo[1.1.1]pentanyl]pteridin-2-yl]tetrahydropyran-2-yl]-2-oxo-1-pyridyl]methyl]cyclopropanecarbonitrile], under 0.1 µM; in that of `Cc1nc2nc([C@@H]3CCO[C@@H](c4ccc(=O)n(C)c4)C3)cc(C34CC(C(F)(F)F)(C3)C4)c2nc1C` [Example 169, 1-methyl-5-[(2R,4R)-4-[2,3-dimethyl-8-[3-(trifluoromethyl)-1-bicyclo-[1.1.1]pentanyl]pyrido[2,3-b]pyrazin-6-yl]tetrahydropyran-2-yl]pyridin-2-one], under 0.1 µM. Regarding `Cc1nc2nc([C@@H]3CCO[C@H](c4cnc(=O)n(C)c4)C3)nc(C34CC(C(F)(F)F)(C3)C4)c2nc1C` [Example 162, 1-methyl-5-[(2S,4R)-4-[6,7-dimethyl-4-[3-(trifluoromethyl)-1-bicyclo[1.1.1]-pentanyl]pteridin-2-yl]tetrahydropyran-2-yl]pyrimidin-2-one], the concentration giving a half-maximal response (EC50) is under 0.1 µM. `COc1nc2c(C34CC(C(F)(F)F)(C3)C4)nc([C@H]3CCO[C@@H](c4ccc(=O)n(-c5csc(C)n5)c4)C3)nc2nc1C` [Example 153, 5-((2R,4S)-4-(6-methoxy-7-methyl-4-(3-(trifluoromethyl)-bicyclo[1.1.1]pentan-1-yl)pteridin-2-yl)tetrahydro-2H-pyran-2-yl)-1-(2-methylthiazol-4-yl)pyridin-2(1H)-one]: the EC50 is under 0.1 µM. On the same count and under the same terms, the value for `Cc1nc2nc([C@H]3CCO[C@@H](c4ccc(=O)n(C)c4)C3)nc(C34CC(C(F)(F)F)(C3)C4)c2nc1C` [Example 25, 5-((2R,4S)-4-(6,7-dimethyl-4-(3-(trifluoromethyl)bicyclo[1.1.1]pentan-1-yl)pteridin-2-yl)tetrahydro-2H-pyran-2-yl)-1-methylpyridin-2(1H)-one] was under 0.1 µM; that for `Cc1cc2c(-c3ccc(F)cc3F)nc(N3C[C@@H](C)O[C@@H](c4ccc(=O)[nH]c4)C3)cc2nc1C` [Example 192, 5-((2S,6R)-4-(5-(2,4-difluorophenyl)-2,3-dimethyl-1,6-naphthyridin-7-yl)-6-methylmorpholin-2-yl)pyridin-2(1H)-one] was 0.1 to 0.5 µM. With `Cc1nc2c(C34CC(C(F)(F)F)(C3)C4)nc([C@H]3CCO[C@@H](c4ccc(=O)[nH]c4)C3)nc2c(=O)n1C` (racemic) [Example 216, 2,3-dimethyl-6-[rac-(2R,4S)-2-(6-oxo-1H-pyridin-3-yl)tetrahydropyran-4-yl]-8-[3-(trifluoromethyl)-1-bicyclo[1.1.1]pentanyl]pyrimido[5,4-d]pyrimidin-4-one], the concentration for a half-maximal effect (EC50) was 0.1 to 0.5 µM. Still for that read-out and setting: the value for `Cc1nc2nc([C@H]3CCO[C@@H](c4ccc(=O)n(N5CC=CC5)c4)C3)nc(C34CC(C(F)(F)F)(C3)C4)c2nc1C` [Example 210, 1-(2,5-dihydropyrrol-1-yl)-5-[(2R,4S)-4-[6,7-dimethyl-4-[3-(trifluoromethyl)-1-bicyclo[1.1.1]pentanyl]pteridin-2-yl]tetrahydropyran-2-yl]pyridin-2-one] was under 0.1 µM. Still for that read-out and setting: in the case of `Cc1nc2c(C34CC(C(F)(F)F)(C3)C4)nc([C@@H]3CCO[C@H](c4ccc(=O)n(C)c4)C3)nc2nc1C1CC1` [Example 156, 1-methyl-5-[(2S,4R)-4-[7-cyclopropyl-6-methyl-4-[3-(trifluoro-methyl)-1-bicyclo[1.1.1]pentanyl]pteridin-2-yl]tetrahydropyran-2-yl]pyridin-2-one] it was under 0.1 µM. On the same count and under the same terms, in the case of `Cc1nc2nc([C@@H]3CCO[C@H](c4ccc(=O)n(C)c4)C3)nc(C34CC(C(F)F)(C3)C4)c2nc1C` [Example 32, 5-[(2S,4R)-4-[4-[3-(difluoromethyl)-1-bicyclo[1.1.1]-pentanyl]-6,7-dimethyl-pteridin-2-yl]tetrahydropyran-2-yl]-1-methyl-pyridin-2-one] it was 0.1 to 0.5 µM. Consider `COc1nc2c(C34CC(C(F)(F)F)(C3)C4)nc([C@H]3CCO[C@@H](c4ccc(=O)n(C)c4)C3)nc2nc1C` [Example 140, 5-[(2R,4S)-4-[6-methoxy-7-methyl-4-[3-(trifluoromethyl)-1-bicyclo[1.1.1]pentanyl]pteridin-2-yl]tetrahydropyran-2-yl]-1-methyl-pyridin-2-one], for which the EC50 is under 0.1 µM.

Regarding `Cc1nc(-n2cc([C@H]3C[C@@H](c4nc(C56CC(C(F)(F)F)(C5)C6)c5nc(C)c(C)nc5n4)CCO3)ccc2=O)cs1` [Example 114, 5-((2R,4S)-4-(6,7-dimethyl-4-(3-(trifluoro-methyl)bicyclo[1.1.1]pentan-1-yl)pteridin-2-yl)tetrahydro-2H-pyran-2-yl)-1-(2-methyl-thiazol-4-yl)pyridin-2(1H)-one], the EC50 was under 0.1 µM. Regarding `Cc1nc2nc([C@H]3CCO[C@@H](c4ccc(=O)n(CC5(C)CC5)c4)C3)nc(C34CC(C(F)(F)F)(C3)C4)c2nc1C` [Example 100, 5-[(2R,4S)-4-[6,7-dimethyl-4-[3-(trifluoromethyl)-1-bicyclo[1.1.1]pentanyl]pteridin-2-yl]tetrahydropyran-2-yl]-1-[(1-methylcyclopropyl)methyl]pyridin-2-one], the EC50 is under 0.1 µM. The same measure, in the same setting: in the case of `Cc1nc2nc(N3C[C@@H](C)O[C@@H](c4ccc(=O)n(C)c4)C3)nc(-c3cnc(C(F)(F)F)s3)c2nc1C` [Example 23, 5-[(2S,6R)-4-[6,7-dimethyl-4-[2-(trifluoromethyl)thiazol-5-yl]pteridin-2-yl]-6-methyl-morpholin-2-yl]-1-methyl-pyridin-2-one] it was under 0.1 µM. Same read-out and setting: in the case of `[2H]C([2H])([2H])n1cc([C@H]2C[C@@H](c3nc(C45CC(C(F)(F)F)(C4)C5)c4nc(C)c(C)nc4n3)CCO2)ccc1=O` [Example 36] it was under 0.1 µM. `C=CCN(CC=C)n1cc([C@H]2C[C@@H](c3nc(C45CC(C(F)(F)F)(C4)C5)c4nc(C)c(C)nc4n3)CCO2)ccc1=O` [Example 206, 1-(diallylamino)-5-[(2R,4S)-4-[6,7-dimethyl-4-[3-(trifluoromethyl)-1-bicyclo[1.1.1]pentanyl]pteridin-2-yl]tetrahydropyran-2-yl]pyridin-2-one]: the 50% effective concentration (EC50) is under 0.1 µM.

With `Cc1nc2nc([C@H]3C[C@@H](C)O[C@@H](c4ccc(=O)n(C5CC5)c4)C3)nc(C34CC(C(F)(F)F)(C3)C4)c2nc1C` [Example 102, 1-cyclopropyl-5-[(2R,4S,6R)-4-[6,7-dimethyl-4-[3-(trifluoromethyl)-1-bicyclo[1.1.1]pentanyl]pteridin-2-yl]-6-methyl-tetrahydropyran-2-yl]pyridin-2-one], the EC50 is under 0.1 µM.

Values taken from patent publication US20260356841A1, “HETEROCYCLIC PYRIDINONE COMPOUNDS AS TRIGGERING RECEPTOR EXPRESSED ON MYELOID CELLS 2 AGONISTS AND METHODS OF USE” (Vigil Neuroscience, Inc., priority 2023, published 2026).
